Measurements from patent US20110275703A1, “SUBSTITUTED SPIROKETAL DERIVATIVES AND USE THEREOF AS THERAPEUTIC DRUG FOR DIABETES” (CHUGAI SEIYAKU KABUSHIKI KAISHA, priority 2007, published 2011).

Tests used:
[1] = molecular target: T1, human SGLT2 (Homo sapiens, UniProt P31639); test: Inhibitory activity against methyl-α-D-glucopyranoside uptake, CHO cells stably expressing human SGLT2; format: cell-based; conditions: inhibition of SGLT2, Table 2-1; read-out: IC50 value
T1 construct: expressed in transfected cells; host or cells: CHO-K1
T1 sequence (P31639 1-672): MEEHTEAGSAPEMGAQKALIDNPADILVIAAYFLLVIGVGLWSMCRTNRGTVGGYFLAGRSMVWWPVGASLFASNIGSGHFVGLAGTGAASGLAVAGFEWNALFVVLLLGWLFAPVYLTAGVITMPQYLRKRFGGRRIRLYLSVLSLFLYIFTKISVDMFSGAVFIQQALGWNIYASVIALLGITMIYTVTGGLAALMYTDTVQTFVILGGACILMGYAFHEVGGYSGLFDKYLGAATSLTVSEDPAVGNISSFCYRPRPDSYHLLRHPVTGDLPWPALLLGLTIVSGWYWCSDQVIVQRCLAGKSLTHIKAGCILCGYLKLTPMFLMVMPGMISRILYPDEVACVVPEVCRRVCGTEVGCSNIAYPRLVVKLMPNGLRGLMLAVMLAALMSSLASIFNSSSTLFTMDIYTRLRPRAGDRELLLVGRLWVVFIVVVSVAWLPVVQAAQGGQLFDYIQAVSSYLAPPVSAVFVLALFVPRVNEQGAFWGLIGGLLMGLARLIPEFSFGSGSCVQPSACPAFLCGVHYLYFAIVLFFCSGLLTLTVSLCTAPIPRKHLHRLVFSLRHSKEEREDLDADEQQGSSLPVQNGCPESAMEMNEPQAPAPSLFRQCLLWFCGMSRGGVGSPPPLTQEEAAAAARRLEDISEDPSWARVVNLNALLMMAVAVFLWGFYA
Text: Evaluation of inhibitory activity against methyl-α-D-glucopyranoside uptake of human Na^+-glucose cotransporter (SGLT1 and SGLT2)
2) Construction of Human SGLT2 Expression Vector
Human SGLT2 cDNA was amplified by PCR with a cDNA library derived from human kidney (Clontech) as a template, synthetic DNA primers and KOD+ DNA Polymerase. The amplified cDNA was inserted into pcRII-Topo vector by using a Topo TA Cloning Dual Promoter kit. E. coli competent cells (TPO10) were transformed with the plasmid vector, cultured in LB medium containing ampicillin (50 mg/L) to grow ampicillin-resistant clones. The plasmid vector containing human SGLT2 cDNA was purified from the clone in a standard manner. Human SGLT2 cDNA added restriction enzyme recognition sites (Xho I at 5′-end, Hind III at 3′-end) was amplified by PCR with the plasmid vector as a template, synthetic DNA primers containing an additional restriction enzyme recognition site and KOD+ DNA Polymerase. This amplified cDNA was digested with Xho I and Hind III, and ligated into expression vector pcDNA3.1(−) digested with Xho I and Hind III by using a Rapid DNA Ligation kit. E. coli competent cells (DH5α) were transformed with the ligated expression vector and grown in ampicillin-containing LB medium. Human SGLT2 expression vector was purified from the ampicillin-resistant clone in a standard manner.
3) Establishment of Cell Lines Stably Expressing Human SGLT1 or Human SGLT2
The human SGLT1 expression vector or the human SGLT2 expression vector was digested with the restriction enzyme Pvu I and transfected into CHO-Kl cells with FuGENE (Roche Diagonostics). After the transfection, the cells were cultured at 37° C. in the presence of 5% CO2 for about 3 weeks in DMEM medium (Gibco) containing penicillin (50 U/mL, SIGMA), streptomycin (50 mg/L, SIGMA), geneticin (200 mg/L, Nacalai Tesque, Inc., Japan) and 20% fetal bovine serum to obtain geneticin-resistant clones. Among these clones, clones stably expressing human SGLT1 or human SGLT2 were selected by the evaluating the sodium-dependent uptake activity of sugar (methyl-α-D-glucopyranoside).
4) Evaluation of Inhibitory Activity Against methyl-α-D-glucopyranoside uptake
Cell lines stably expressing human SGLT1 or human SGLT2 CHO were seeded in 96-well culture plates at a density of 30000 to 40000 cells/well and cultured for 4 to 6 days. The medium in these plates was removed and replaced by 150 μL/well pretreatment buffer (i.e., a buffer containing 140 mM choline chloride, 2 mM potassium chloride, 1 mM calcium chloride, 1 mM magnesium chloride, 10 mM 2-[4-(2-hydroxyethyl)-1-piperazinyl]ethanesulfonic acid and tris(hydroxymethyl)aminomethane, pH 7.4), and the plates were incubated at 37° C. for 20 minutes. The pretreatment buffer in the plates was removed, replaced by 50 μL/well fresh pretreatment buffer, and the plates were incubated at 37° C. for 20 minutes. Methyl-α-D-(U—^14C)glucopyranoside (6.3 mL, Amersham Pharmacia Biotech, 200 mCi/L) was added to and mixed with 100 mL buffer (i.e., a buffer containing 140 mM sodium chloride, 2 mM potassium chloride, 1 mM calcium chloride, 1 mM magnesium chloride, 1 mM methyl-α-D-glucopyranoside, 10 mM [4-(2-hydroxyethyl)-1-piperazinyl]ethanesulfonic acid and tris(hydroxymethyl)aminomethane, pH 7.4), which was used as uptake buffer. Test compounds were dissolved into uptake buffer and these test compound solutions were used for evaluating inhibitory activity. Uptake buffer without a test compound was used as a control solution. Moreover, for use in measuring baseline uptake in the absence of sodium, sodium-free solution was prepared in the same manner to contain 140 mM choline chloride instead of sodium chloride. The pretreatment buffer was removed from each well of the plates and replaced by 35 μL/well test compound solutions, control solution or sodium-free solution, and the plates were incubated at 37° C. for 45 minutes. […]

[2] = tested on: db/db mice; test: Study for glucose lowering effect in db/db mouse; format: in vivo; conditions: Mus musculus, po, 0.3 mg/kg administration, 6 hours, read-out: reduction of blood glucose 6 hours after administration
Procedure: Study for Glucose Lowering Effect in dB/dB Mouse
A study for glucose lowering effect was conducted using db/db mice (purchased from Clea Japan, Inc., male, 9 to 11 weeks old), type 2 diabetic model mice. On the day of the study, body weights and blood glucose levels were measured prior to the start of testing. Measurement of the blood glucose levels was performed using a simple blood glucose meter (manufactured by Bayer HealthCare, Dexter-Z II). The mice were allocated to some groups consisting of 5 mice each so that homogeneity of body weights or blood glucose levels among groups would be ensured. Blood collection was carried out by making an incision on the tip of the tail and taking the blood therefrom. On the day of the study, the test compounds were suspended in 0.5% carboxymethylcellulose solution (CMC solution), and the dosing solutions of which concentration was adjusted to either 0.3 mg/10 mL or 3 mg/10 mL were prepared. The dosing solutions were orally administered by gavage for mice in 10 mL/kg. To the control group, only a 0.5% CMC solution was orally administered in 10 mL/kg. Blood was collected prior to or sequentially after administration of test compounds by above method. The blood glucose levels were determined using a hexokinase method (AutoSera S GLU, manufactured by Daiichi Pure Chemicals Co., Ltd.). A percent reduction of blood glucose relative to control group at each time point after administration of test compounds was calculated by the following equation.
Percent reduction of blood glucose (%)={blood glucose level in the control group (mg/dL)-blood glucose level in the test compound group (mg/dL)}/blood glucose level in the control group (mg/dL)×100

IC50 [1]: 2.1 nM
SMILES: C#Cc1cc2c(cc1Cc1ccc(CC)cc1)[C@]1(OC2)O[C@H](CO)[C@@H](O)[C@H](O)[C@H]1O [Example 31, (1S,3′R,4′S,5′S,6′R)-6-[(4-ethylphenyl)methyl]-5-ethynyl-3′,4′,5′,6′-tetrahydro-6′-(hydroxymethyl)-spiro[isobenzofuran-1(3H),2′-[2H]pyran]-3′,4′,5′-triol]
inhibition in vivo at 0.3 mg/kg [2]: ≥ 25%
